Experimental data taken from US20210205398A1, “COMPOSITIONS CONTAINING PHRAGMITIS RHIZOMA EXTRACT AS ACTIVE INGREDIENT FOR PREVENTION, AMELIORATION, OR TREATMENT OF A DISORDER CAUSED BY SIDE EFFECT OF ANTICANCER AGENT” (KOREA INSTITUTE OF ORIENTAL MEDICINE, priority 2016, published 2021).

Key:
[1] = tested on: animal model having bone marrow suppression induced by docetaxel; assay: Alleviation of bone marrow suppression in animal model having bone marrow suppression induced by docetaxel; type: in vivo, C57BL/6 mice
Description: After that, a change brought by the Phragmitis Rhizoma extract was determined.
Specifically, C57BL/6 mice were categorized into 4 groups. Group 1 is a control, i.e., a group treated with saline containing 5% ethanol and 2% polysorbate 80. Group 2 is a docetaxel treatment group, i.e., a group with intraperitoneal injection (3 times) of 30 mg/kg docetaxel. Group 3 is a docetaxel and 125 mg/kg Phragmitis Rhizoma extract administration group, i.e., a group to which compulsory administration of 125 mg/kg Phragmitis Rhizoma extract was carried out, once a day starting from 2 days before the administration of docetaxel, and the compulsory administration of 125 mg/kg Phragmitis Rhizoma extract (once a day) was continued even for the 3 days of administering docetaxel. Lastly, Group 4 is a docetaxel and 250 mg/kg Phragmitis Rhizoma extract administration group, i.e., a group to which administration of 250 mg/kg Phragmitis Rhizoma extract was carried out, in the same manner as above Group 3, once a day starting from 2 days before the administration of docetaxel, and the compulsory administration of 250 mg/kg Phragmitis Rhizoma extract (once a day) was continued even for the 3 days of administering docetaxel.
After that, a change in body weight of the mouse belonging to each of the control group, docetaxel administration group, combined administration group with docetaxel and 125 mg/kg Phragmitis Rhizoma extract, and combined administration group with docetaxel and 250 mg/kg Phragmitis Rhizoma extract was measured every day. On Day 6, the mouse was sacrificed and the weight of the spleen and thymus, which play an important role in determining cell number change in bone marrow and hematopoiesis, was measured.
Organ index (mg/g)=Weight of organ (mg)/Weight of animal (g)

[2] = tested on: animal model having docetaxel-induced bone marrow suppression; assay: Blood cell numbers in animal model having docetaxel-induced bone marrow suppression; type: in vivo, C57BL/6 mice
Description: In order to determine the influence of Phragmitis Rhizoma extract on blood parameters of an animal model having bone marrow suppression, bone marrow suppression was induced by intraperitoneal injection of docetaxel to a mouse. After that, a change brought by the Phragmitis Rhizoma extract was determined.
Specifically, C57BL/6 mice were categorized into 5 groups. Group 1 is a control, i.e., a group treated with saline containing 5% ethanol and 2% polysorbate 80. Group 2 is a docetaxel treatment group, i.e., a group with intraperitoneal injection (3 times) of 30 mg/kg docetaxel. Group 3 is a docetaxel and 30 mg/kg Phragmitis Rhizoma extract administration group, i.e., a group to which compulsory administration of 30 mg/kg Phragmitis Rhizoma extract was carried out, once a day starting from 2 days before the administration of docetaxel, and the compulsory administration of 30 mg/kg Phragmitis Rhizoma extract (once a day) was continued even for the 3 days of administering docetaxel. Group 4 is a docetaxel and 100 mg/kg Phragmitis Rhizoma extract administration group, i.e., a group to which administration was carried out in the same manner as above Group 3. Lastly, Group 5 is a docetaxel and 300 mg/kg Phragmitis Rhizoma extract administration group, i.e., a group to which administration was carried out in the same manner as Group 3.
Blood was taken from the animal and a change in the number of blood cells was determined.

[3] = tested on: bone marrow cells from mouse femur; assay: Hematopoietic toxicity in mouse having intraperitoneal injection of anticancer agent (in vivo), bone marrow cell count; design: species or system C57BL/6 mouse; conditions: docetaxel i.p. 50, 100, or 150 mg/kg; three days and seven days after injection; FIG. 2
Description: A C57BL/6 mouse was subjected to intraperitoneal injection of docetaxel at 50, 100, or 150 mg/kg. Three days and seven days after the injection, bone marrow cells were isolated from the mouse femur and counted, and the survival rate was measured.

[4] = docetaxel 30 mg/kg i.p. 3 times, alone, Day 6
[5] = docetaxel 30 mg/kg i.p. 3 times, alone, mean ± SEM, ten mice

For CC(=O)O[C@@]12CO[C@@H]1C[C@H](O)[C@@]1(C)C(=O)[C@H](O)C3=C(C)[C@@H](OC(=O)[C@H](O)[C@@H](NC(=O)OC(C)(C)C)c4ccccc4)C[C@@](O)([C@@H](OC(=O)c4ccccc4)[C@H]21)C3(C)C [docetaxel], which “number of bone marrow cells (bone marrow mononuclear cells)” value ([1]; docetaxel 30 mg/kg i.p. 3 times, alone, vs control, FIG. 5) is on record?
The value was “decreased significantly”.

What about the Spleen index [1, 4] of the same compound?
Its Spleen index is 2.366 ± 0.22 mg/g.

And the Thymus index [1, 4]?
Its Thymus index is 0.911 ± 0.22 mg/g.

What about the body weight ([1]; docetaxel 30 mg/kg i.p. 3 times, alone, FIG. 4) of the same compound?
Its body weight is “a significant decrease in body weight was induced”.

What about the “histopathological analysis of thymus” value ([1]; docetaxel administration, FIG. 7) of the same compound?
Its value is “organ shrinkage and loss of functional lymphoid organ”.

And the “organ index of spleen and thymus (in words)” value ([1]; docetaxel alone)?
Its value is “a decrease in organ index”.

And the “expression of IL-3 (mRNA, spleen tissue)” value ([1]; docetaxel alone, FIG. 8)?
The value was “largely decreased”.

And the “histological analysis of femur (H&E)” value ([1]; docetaxel only, FIG. 6)?
The value was “a hypocellularity and an abnormality in cellular structure in bone marrow”.

What about the Lymphocytes [2, 5] of the same compound?
The Lymphocytes was 1.56 ± 0.22.

What about the Neutrophils [2, 5] of the same compound?
Its Neutrophils is 0.30 ± 0.01.

What about the RBCs [2, 5] of the same compound?
The RBCs was 7.72 ± 0.15.

What about the WBCs [2, 5] of the same compound?
The WBCs was 2.09 ± 0.19.

What about the “number of blood cells (in words)” value ([2]; docetaxel administration group) of the same compound?
Its value is “a decrease in the number of the white blood cells, neutrophils, lymphocytes, and red blood cells”.

And the “number of isolated bone marrow cells” value [3]?
The value was “a decrease in the number of the isolated bone marrow cells was observed in significant sense”.
